Results from PMC11721293 (JCI Insight, 2025).
“And” between values parts separate entries of the source, which are not always exact repeats. Equal entries are not always repeated. Where two headings read alike, the source gives them in different places.

What was measured:
in vitro [1] = conditions: human
[2] = system: SARS-CoV-2 spike protein–mediated cell-cell fusion (BA.1); format: cell-based; conditions: 48 h
SARS-CoV-2 [3] = test: Virus-induced cytopathic effect (CPE) in VeroE6; format: cell-based
SARS-CoV-2-nLUC [4] = format: cell-based; conditions: Nirmatrelvir 0 uM, sheet S3B, replicates
[5] = system: SARS-CoV-2 (Wuhan strain); format: cell-based; conditions: replicates
[6] = system: SARS-CoV-2 spike protein–mediated cell-cell fusion (B.1.315); format: cell-based; conditions: B.1.315 (printed), 48 h
SARS-CoV-2 [7] = format: cell-based; conditions: for percentage replication relative to untreated, infected control: LNF 10 μM
SARS-CoV-2 viral entry = format: cell-based; conditions: for viral entry signal relative to DMSO (sheet 4D): individual replicates, DMSO about 1
[8] = system: SARS-CoV-2 strain USA-WA1/2020; format: in vivo, mouse
[9] = Pharmacokinetics after single IP administration; conditions: K18-hACE2(Tg) C57Bl/6J, mouse, 40 mg/kg; for Kp / concentration at 24 h / half-life: in vivo, single IP; for Kp: AUC ratio (Tissue/PL); for concentration at 24 h: C24h
[10] = system: SARS-CoV-2 spike protein–mediated cell-cell fusion (Wuhan); format: cell-based; conditions: 48 h
SARS-CoV-2-nLUC [11] = format: cell-based; conditions: Nirmatrelvir 0 uM
in vitro [12] = conditions: human; remark: listed apart in the source
[13] = system: SARS-CoV-2 BA.1 (Omicron); format: cell-based; conditions: VeroE6, 10 μM LNF, 24 h, DMSO = 100%
viral RdRp = viral RdRp (Severe acute respiratory syndrome coronavirus 2, UniProt P0DTD1); test: In vitro RdRp activity assay (RNA extension); format: biochemical, SARS-CoV-2; conditions: LNF 0.1, 1 and 10 μM; TEMPOL 100 μM
[14] = system: SARS-CoV-2 spike protein–mediated cell-cell fusion (B.1.617); format: cell-based; conditions: 48 h
[15] = system: VSV-SARS-CoV-2-S pseudovirus; test: microbe, parasite or virus in culture; format: cell-based; conditions: for EC50: Pseudovirus
[16] = system: SARS-CoV-2 strain USA-WA1/2020; format: in vivo, mouse; conditions: for Viral titer Log10: individual animals, sheet S9B
[17] = system: SARS-CoV-2 BA.4.6 (Omicron); format: cell-based; conditions: VeroE6, 10 μM LNF, 24 h, DMSO = 100%
[18] = system: SARS-CoV-2 spike protein–mediated cell-cell fusion (B.1.1.7); format: cell-based; conditions: 48 h
[19] = Fifty MPK twice daily; cited from earlier work
SARS-CoV-2-WA = format: in vivo, mouse; conditions: 50 MPK oral gavage twice daily

## NC(=O)N1CCC(CC(=O)N2CCC([C@H]3c4ncc(Br)cc4CCc4cc(Cl)cc(Br)c43)CC2)CC1 [LNF, lonafarnib]
In vitro [1]
  CC50: > 30 µM
[2]; 0.3 (printed)
  relative luciferase signals: 93.9702 and 58.6533 and 53.4918 and 75.0181
[2]; 1 (printed)
  relative luciferase signals: 108.194 and 73.2387 and 73.7551 and 89.5366
SARS-CoV-2 [3]
  effect on virus-induced CPE: rescued the infected cells from virus-induced CPE
SARS-CoV-2-nLUC [4]; Lonafarnib 0.15625 uM
  Response: 2.22 and 4.213 and 2.074
SARS-CoV-2-nLUC [4]; Lonafarnib 0.3125 uM
  Response: 1.244 and 2.405 and 2.249
SARS-CoV-2-nLUC [4]; Lonafarnib 0.625 uM
  Response: -2.027 and 1.3173 and 0.3833
SARS-CoV-2-nLUC [4]; Lonafarnib 1.25 uM
  Response: 5.206 and 5.033 and 2.62
SARS-CoV-2-nLUC [4]; Lonafarnib 2.5 uM
  Response: 26.488 and 26.5645 and 16.3468
SARS-CoV-2-nLUC [4]; Lonafarnib 5 uM
  Response: 76.2414 and 75.9942 and 62.6493
[5]; Fig 1B, 5 mM (printed)
  percentage of N-positive cells relative to DMSO: 45.291% and 39.2779% and 27.7255% and 32.1523% and 27.1799% and 44.2583% and 28.0879%
[5]; Fig 1B, 10 mM (printed)
  percentage of N-positive cells relative to DMSO: 6.293% and 7.566% and 7.349% and 6.272% and 7.2903% and 7.5535% and 6.442%
[5]; Fig 1C, 5 mM (printed)
  percentage of N-positive cells relative to DMSO: 10.1344% and 5.318% and 6.858% and 5.707% and 14.6837% and 5.046% and 43.0964%
[5]; Fig 1C, 10 mM (printed)
  percentage of N-positive cells relative to DMSO: 4.886% and 4.575% and 6.603% and 7.209% and 6.0224% and 5.548% and 4.54%
[6]; Conc-mM 0.3 (printed)
  relative luciferase signals: 107.391 and 104.235 and 80.412 and 106.736
[6]; Conc-mM 1 (printed)
  relative luciferase signals: 99.0641 and 83.1761 and 82.6205 and 92.2492
[6]; Conc-mM 3 (printed)
  relative luciferase signals: 65.2189 and 57.2378 and 55.5623 and 61.7046
[6]; Conc-mM 10 (printed)
  relative luciferase signals: 36.5792 and 34.1792 and 24.08 and 33.4344
SARS-CoV-2 [7]
  time-of-addition result: high efficacy of LNF even if the drug was added 4–24 hours after infection
SARS-CoV-2 [7]; Calu3, 10 μM
  effect on early events of viral infection: little or no effect on the early events of viral infection
SARS-CoV-2 [7]; VeroE6, 10 μM
  effect when drug present during an initial period of viral infection: 50%
SARS-CoV-2 [7]; VeroE6, drug present (0,4) h
  percentage replication relative to untreated, infected control: 51.9274% and 49.1443% and 50.2213% and 50.0245% and 32.7935% and 31.4407% and 36.9633% and 35.1922%
SARS-CoV-2 [7]; VeroE6, drug present (0,24) h
  percentage replication relative to untreated, infected control: 1.998% and 1.949% and 1.813% and 1.81% and 1.891% and 1.817% and 1.711% and 1.724%
SARS-CoV-2 [7]; VeroE6, drug present (2,4) h
  percentage replication relative to untreated, infected control: 73.914% and 71.0289% and 54.3207% and 56.213% and 71.519% and 69.7874% and 67.1461% and 65.4707%
SARS-CoV-2 [7]; VeroE6, drug present (2,24) h
  percentage replication relative to untreated, infected control: 3.962% and 4.023% and 3.69% and 3.889% and 3.6% and 3.5757% and 3.292% and 3.351%
SARS-CoV-2 [7]; VeroE6, drug present (4,24) h
  percentage replication relative to untreated, infected control: 4.215% and 4.26% and 5.337% and 5.659% and 5.734% and 5.806% and 3.6315% and 3.627%
SARS-CoV-2 [7]; VeroE6, drug present (-2,0) h
  percentage replication relative to untreated, infected control: 98.397% and 97.5913% and 93.062% and 94.6733% and 95.1896% and 94.1548% and 95.9294% and 95.558%
SARS-CoV-2 [7]; VeroE6, drug present (-2,2) h
  percentage replication relative to untreated, infected control: 55.8703% and 55.9821% and 50.6506% and 51.7567% and 51.3569% and 50.1515% and 51.6639% and 51.979%
SARS-CoV-2 [7]; VeroE6, drug present (-2,4) h
  percentage replication relative to untreated, infected control: 43.6671% and 43.2347% and 41.1828% and 42.7136% and 40.9571% and 40.8036% and 42.923% and 42.3078%
SARS-CoV-2 [7]; VeroE6, drug present (-2,24) h
  percentage replication relative to untreated, infected control: 1.731% and 1.694% and 2.365% and 2.435% and 2.361% and 2.315% and 1.913% and 1.91%
SARS-CoV-2 viral entry
  inhibition of viral entry: inhibited viral entry
SARS-CoV-2 viral entry; TA6 cells
  viral entry signal relative to DMSO (sheet 4D): 0.282 and 0.3105 and 0.4405 and 0.3405 and 0.2054 and 0.2625 and 0.3109 and 0.2607 and 0.1876
SARS-CoV-2 viral entry; VeroE6 cells
  viral entry signal relative to DMSO (sheet 4D): 0.1605 and 0.1408 and 0.1008 and 0.1281 and 0.213 and 0.1543 and 0.08537 and 0.09496 and 0.1294
[8]; Day 2, individual animals
  Histopathology Score: 2 (2×) and 1 and 0.5 and 1.5 (3×) and 0 (3×)
[8]; Day 5, individual animals
  Histopathology Score: 0.5 (3×) and 1 (4×) and 2.5 and 1.5 and 0
[8]; day 5
  lung histopathology score vs vehicle: significantly lower histopathology score
[9]; brain
  AUC(0-inf): 29 µM·h
  Cmax: 1.46 µM
  Tmax: 7 h
[9]; heart
  AUC(0-inf): 987 µM·h
  Cmax: 94.1 µM
  Tmax: 0.5 h
[9]; Brain
  Kp: 0.12
  concentration at 24 h: 0.36 µM
[9]; Heart
  Kp: 3.9
  concentration at 24 h: 11.4 µM
[9]; Kidney
  Kp: 2.8
  concentration at 24 h: 8.24 µM
[9]; Liver
  Kp: 12
  concentration at 24 h: 40.3 µM
[9]; Lung
  Kp: 3.1
  concentration at 24 h: 8.17 µM
[9]; Plasma
  concentration at 24 h: 2.76 µM
[9]; t1/2, Brain
  half-life: 8.3 h
[9]; t1/2, Heart
  half-life: 10.1 h
[9]; t1/2, Kidney
  half-life: 9 h
[9]; t1/2, Liver
  half-life: 10.7 h
[9]; t1/2, Lung
  half-life: 8.7 h
[9]; t1/2, Plasma
  half-life: 8.8 h
[9]; kidney
  AUC(0-inf): 699 µM·h
  Cmax: 46 µM
  Tmax: 1 h
[9]; liver
  AUC(0-inf): 3060 µM·h
  Cmax: 224 µM
  Tmax: 0.25 h
[9]; lung
  AUC(0-inf): 788 µM·h
  Cmax: 93.5 µM
  Tmax: 0.25 h
[9]; plasma
  AUC(0-inf): 253 µM·h
  Cmax: 63.3 µM
  Tmax: 0.08 h
[10]; 0.3 (printed)
  relative luciferase signals: 83.8904 and 99.372 and 100.719 and 105.145
[10]; 1 (printed)
  relative luciferase signals: 76.0312 and 74.8493 and 82.9658 and 76.539
[10]; 3 (printed)
  relative luciferase signals: 82.9427 and 55.6651 and 51.5871 and 56.5775
[10]; 10 (printed)
  relative luciferase signals: 30.6993 and 29.5083 and 34.9918 and 28.4711
SARS-CoV-2-nLUC [11]; Lonafarnib 2.5 uM
  Response: 71.2556 and 72.7427 and 61.8907
SARS-CoV-2-nLUC [11]; Lonafarnib 5 uM
  Response: 96.7703 and 97.5859 and 97.3674
In vitro [12]
  CC50: > 30 µM
[13]
  % Genome: 3.11% and 3.81% and 4.35%
Viral RdRp
  polymerase activity, primer extension: not affected
[14]; Conc-mM 0.3 (printed)
  relative luciferase signals: 89.139 and 98.5081 and 88.3035 and 100.955
[14]; Conc-mM 1 (printed)
  relative luciferase signals: 86.0359 and 78.2183 and 102.626 and 94.5695
[14]; Conc-mM 3 (printed)
  relative luciferase signals: 65.1493 and 69.6847 and 66.5219 and 76.0103
[14]; Conc-mM 10 (printed)
  relative luciferase signals: 35.8018 and 38.2651 and 35.7143 and 29.2527
[15]
  Max %: 100.0%
[15]; Calu-3, 24 h, 24 h, read-out: EC50
  EC50: 3.17 µM
[15]; Huh-7, 24 h, 24 h, read-out: EC50
  EC50: 4.16 µM
[15]; Huh-7, read-out: EC50
  EC50: 4.2 µM
[15]; read-out: EC50 values, range over cell lines
  EC50: 1.5 to 4.16 µM
[15]; read-out: EC50
  EC50: 3.3 µM
[16]; 40 MPK IP twice daily, […]
  lung viral titer lower than vehicle-treated group: ~2 log
[16]; D2
  Viral titer Log10: 7.238 Log10 and 6.041 Log10 and 6.833 Log10 and 6.059 Log10 and 6.826 Log10 and 4.954 Log10 and 7.083 Log10 and 4.756 Log10
[16]; D5
  Viral titer Log10: 6.491 Log10 and 7.228 Log10 and 6.919 Log10 and 6.362 Log10 (2×) and 6.681 Log10 and 7.255 Log10 and 4 Log10 and 7.033 Log10
[16]; Day 2, individual animals
  Titer Log10: 1.954 (5×) and 2 and 4.538 and 2.301 and 3.13 (2×)
[16]; Day 5, individual animals
  Titer Log10: 1.954 (3×) and 2.301 and 3.23 and 3.176 and 2.699 and 2.602 and 3.398 and 2.477
[16]; LNF 40 MPK IP, RDV 25 MPK SC, twice daily
  lung viral titer: significantly lowered the viral titer in the lung
[17]
  % Genome: 1.73% and 1.25% and 0.58%
[18]; Conc-mM 0.3 (printed)
  relative luciferase signals: 87.1833 and 82.9457 and 81.1177 and 86.5186
[18]; Conc-mM 1 (printed)
  relative luciferase signals: 76.2725 and 76.052 and 86.6016 and 79.6419
[18]; Conc-mM 3 (printed)
  relative luciferase signals: 59.768 and 61.4378 and 52.374 and 53.9099
[18]; Conc-mM 10 (printed)
  relative luciferase signals: 35.1915 and 32.9108 and 27.2582 and 33.268
[19]
  toxicity in preclinical mouse studies: without any toxicity
SARS-CoV-2-WA
  lung histopathology score vs vehicle: significantly lower histopathology score
